# Reference: paper PMC7932555, “A diffusible signal factor of the intestine dictates Salmonella invasion through its direct control of the virulence activator HilD” (PLoS Pathogens, 2021)
# Test system: sipB::lacZY
# Experiment: sipB::lacZY reporter β-galactosidase assay in strains expressing wild type or mutant HilD
# Assay type: cell-based
# Settings: 20 μM fatty acid (mix: 20 μM of each)
# Description: To test the effect of mutations in hilD, we initially constructed a background Salmonella strain without chromosomal hilC, rtsA and hilD and fused sipB to lacZY to assess SPI-1 expression. hilD with a C-terminal 3XFLAG tag was cloned into pWSK29 under control of the tetRA promoter for tetracycline-inducible expression. This plasmid was subjected to site-directed mutagenesis at specific nucleotides to change selected amino acids to alanine, using the Agilent QuikChange II Site-Directed Mutagenesis kit following their protocol. Mutations were confirmed by DNA sequencing.
# Salmonella strains were inoculated into LB buffered with 100 mM MOPS [3-(N-morpholino) propanesulphonic acid] pH 6.7, with necessary antibiotics, and fatty acids or control solvents to be tested. Cultures were incubated at 37° C without aeration overnight, and assays were performed using an established protocol.
# [1] = strain expressing wild type HilD
Structure (SMILES),repression of sipB expression (strain expressing HilD K293A),repression of sipB expression (strain expressing HilD K294A),repression of sipB expression [1] [fold],repression of sipB expression (strain expressing HilD K43A),repression of sipB expression (strain expressing HilD Q290A)
"CCCCCCCCC/C=C\C(=O)O [c2-DDA, cis-2-dodecenoic acid]",no significant reduction,no significant reduction,4.1,,
"CCCCCCCCCCC/C=C\CCCCCCC(=O)O [c8-EA, cis-8-eicosenoic acid]",continued to repress sipB expression,continued to repress sipB expression,,,
"CCCCCCCC/C=C\CCCCCCCC(=O)O [oleic acid, cis-9-octadecenoic acid]",continued to repress sipB expression,continued to repress sipB expression,3.7,no longer had a repressive effect,no longer had a repressive effect
